Reference: patent US10017509B2, “Macrocylic pyrimidine derivatives” (Janssen Pharmaceutica NV, priority 2014, dated 2018)

What was measured:
[1] = biological target: Vps34 (PIK3C3 lipid kinase) (Homo sapiens, UniProt Q8NEB9); test: Biochemical Vps34 lipid kinase assay (ADP-Glo); settings: for remaining activity at 1 µM: 1 h, read-out: VPS34_1microM_% of cntrl; for remaining activity at 1 µM / VPS34_1microM_% of cntrl: single dose 1 μM compound, residual activity compared to control (DMSO); for IC50: serial half-log dilution 10 μM to 0.3 nM, pIC50 = -log IC50 (M)
Experimental: Biochemical Vps34 Lipid Kinase Assay
A non-radiometric kinase assay (ADP-Glo™ Assay, Promega, Madison, Wi, USA) was used for measuring the kinase activity of the PIK3C3 lipid kinase. All kinase assays were performed in 96-well half-area microtiter plates in a 25 μl reaction volume. The reaction cocktail was pipetted in 3 steps in the following order: • 10 μl of ATP solution (in assay buffer, see below) • 5 μl of test sample in 5% DMSO 10 μl of enzyme/substrate mixture
All lipid kinase assays contained 50 mM HEPES (4-(2-hydroxyethyl)-1-piperazineethanesulfonic acid)-NaOH, pH 7.5, 1 mM EGTA ((ethylene glycol tetraacetic acid), 100 mM NaCl, 0.03% CHAPS (3-[(3-Cholamidopropyl)dimethylammonio]-1-propanesulfonate), 2 mM DTT (Dithiothreitol), 20 μM ATP (corresponding to the apparent ATP-Km), kinase (7.6 nM) and substrate (50 μM). The assay for PIK3C3 additionally contained 3 mM MnCl2.
The reaction cocktails were incubated at 30° C. for 60 minutes. The reaction was stopped with 25 μl ADP-Go™ reagent per well. Plates were incubated for 40 minutes at room temperature, followed by addition of 50 μl kinase detection reagent per well and incubation for 60 minutes at room temperature. Signal was determined with a microplate luminescence reader (Victor, Perkin Elmer). The assay was either performed using a single dose of compound (1 μM final concentration in the assay reaction) with resulting data expressed as residual activity compared to control (DMSO), or using a serial (half-log) dilution of compounds starting at 10 μM and down to 0.3 nM (final concentrations in the assay) with data expressed as the pIC50.
(§1) (pIC50 is −log IC50 where IC50 represents the concentration expressed in M at which the test compound gives 50% inhibition)

[2] = biological target: T1, EF2K (Homo sapiens, UniProt O00418); test: Biochemical EF2K lysate-based kinase assay (AlphaLISA p-eEF2 Thr56); settings: pIC50 = -log IC50 (M), read-out: eEF2K_C_alphalisa pIC50 (converted)
T1 construct: host or cells: LN-229 cell lysate
T1 sequence (O00418 1-725): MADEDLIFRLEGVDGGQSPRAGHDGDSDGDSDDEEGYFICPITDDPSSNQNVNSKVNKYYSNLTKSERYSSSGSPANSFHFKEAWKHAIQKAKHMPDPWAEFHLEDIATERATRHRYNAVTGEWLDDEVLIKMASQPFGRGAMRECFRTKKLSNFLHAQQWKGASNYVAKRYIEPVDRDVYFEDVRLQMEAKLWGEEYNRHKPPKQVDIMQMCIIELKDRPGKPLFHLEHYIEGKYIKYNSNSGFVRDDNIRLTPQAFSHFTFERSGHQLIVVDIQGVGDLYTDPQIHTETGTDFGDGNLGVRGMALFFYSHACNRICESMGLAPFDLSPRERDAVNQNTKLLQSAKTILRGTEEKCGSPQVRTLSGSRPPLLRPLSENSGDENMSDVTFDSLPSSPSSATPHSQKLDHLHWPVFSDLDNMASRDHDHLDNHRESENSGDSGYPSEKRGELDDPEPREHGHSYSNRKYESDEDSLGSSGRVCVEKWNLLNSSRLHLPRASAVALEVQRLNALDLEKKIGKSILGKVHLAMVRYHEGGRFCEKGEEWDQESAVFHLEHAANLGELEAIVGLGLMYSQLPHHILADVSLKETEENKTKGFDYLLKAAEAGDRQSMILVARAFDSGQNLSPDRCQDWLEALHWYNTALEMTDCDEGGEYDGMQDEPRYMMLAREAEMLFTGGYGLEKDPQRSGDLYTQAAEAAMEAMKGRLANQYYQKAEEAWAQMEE
Text: Biochemical EF2K Lysate-Based Kinase Assay
LN-229 cells were purchased from ATCC (CRL-2611); these are glioblastoma cells. Cell lysates from LN229 were used in this kinase assay to provide both the kinase and the substrate (EF2). The AlphaLISA p-eEF2 (Thr56) detection assay was developed using a sandwich assay format with two specific antibodies recognizing different epitopes of the target, including one antibody against the phosphorylation site of interest. One anti-eEF2 antibody was conjugated onto AlphaLISA Acceptor beads, while the second antibody was biotinylated and captured by streptavidin coated Donor beads.
Compound was mixed with LN-229 cell lysates in the presence of a kinase buffer (e.g. HEPES) at a pH of 6.6, containing 10 mM Mg^2+ (e.g. magnesium acetate) and 10 mM adenosine-tri-phosphate (ATP) and incubated at room temperature for 15 minutes. The kinase reaction was stopped with excess ethylenediaminetetraacetic acid disodium salt and the biotinylated-anti phospho eEF2 antibody (3 nM) was added for 1 hour. Then the anti-EF2 acceptor beads (10 μg/ml) as well as the streptavidin coated donor beads (20 μg/ml) were added for 1 hour, and the AlphaLISA signal was measured in an Envision instrument once, left overnight, and measured again for the final read.
as §1

[3] = biological target: T1, EF2K; test: EF2K cell-based assay (P-EF2 AlphaLISA, 2-deoxyglucose stimulated MCF10A cells); settings: 2.5 mM 2-deoxyglucose stimulated, P-EF2 Thr56, pIC50 = -log IC50 (M), read-out: eEF2K_C_PThr56 pIC50 (converted)
Experimental: In this assay, 2.5 mM 2-deoxyglucose was used to deplete intracellular ATP and activate 5′ adenosine monophosphate-activated protein kinase (AMPK) in the immortalized epithelial breast cell lines, MCF10A. MCF 10A cells were purchased from ATCC (CRL-10317).
MCF10A cells are seeded at a density of 1.25×10^5 Cells/ml at 100 μl/well in a 96-well plate and incubated for 24 hours (37° C., 5% CO2). Compound is added for 1 hour, and cell are stimulated with 2.5 mM of 2-deoxy-glucose for 4 hours. Medium is then removed, and cells are lysed in an ice-cold buffer M-PER (Thermo Scientific, 78501), containing protease and phosphatase inhibitors. P-EF2 levels are determined in these lysates using the P-EF2 AlphaLISA described above.
as §1

Chain of Vps34 (PIK3C3 lipid kinase) (Q8NEB9 whole entry, species assumed): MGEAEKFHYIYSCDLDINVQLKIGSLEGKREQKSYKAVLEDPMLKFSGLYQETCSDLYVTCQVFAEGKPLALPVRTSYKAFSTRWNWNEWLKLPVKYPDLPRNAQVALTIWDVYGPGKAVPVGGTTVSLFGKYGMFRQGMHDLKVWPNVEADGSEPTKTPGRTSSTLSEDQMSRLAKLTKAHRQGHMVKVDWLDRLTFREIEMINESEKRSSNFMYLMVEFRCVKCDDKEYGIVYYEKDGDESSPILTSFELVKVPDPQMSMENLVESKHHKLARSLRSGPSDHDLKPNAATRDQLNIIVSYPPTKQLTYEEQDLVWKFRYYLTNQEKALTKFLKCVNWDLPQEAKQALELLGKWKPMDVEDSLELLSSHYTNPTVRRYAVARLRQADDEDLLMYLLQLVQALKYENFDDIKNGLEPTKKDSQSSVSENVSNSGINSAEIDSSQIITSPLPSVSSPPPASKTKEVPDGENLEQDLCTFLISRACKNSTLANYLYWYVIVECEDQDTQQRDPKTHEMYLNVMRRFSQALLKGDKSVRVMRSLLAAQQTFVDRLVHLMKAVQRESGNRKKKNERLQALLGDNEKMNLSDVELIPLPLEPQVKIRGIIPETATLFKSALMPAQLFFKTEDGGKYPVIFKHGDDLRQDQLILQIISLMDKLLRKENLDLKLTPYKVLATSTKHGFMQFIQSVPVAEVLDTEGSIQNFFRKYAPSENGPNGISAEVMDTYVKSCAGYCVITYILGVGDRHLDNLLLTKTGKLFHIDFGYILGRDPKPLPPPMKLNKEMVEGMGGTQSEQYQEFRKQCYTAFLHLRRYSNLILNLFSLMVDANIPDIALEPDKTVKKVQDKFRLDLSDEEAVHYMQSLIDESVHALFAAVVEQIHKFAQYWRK

Compound	remaining activity at 1 µM [1] [%]	IC50 [1] [M]	IC50 [2] [M]	IC50 [3] [M]	VPS34_1microM_% of cntrl [1]
O=C1CC2CN(CCN2)Cc2cccc(c2)Nc2nccc(n2)-c2ccc(nc2)NCCCN1 (stereo not drawn) [Compound 70]	7.38	1.2e-08	6.03e-06	> 3.02e-05	–
O=C1CN2CCN(CC2)Cc2cc(Cl)cc(c2)Nc2nccc(n2)-c2ccc(nc2)NCCCN1 [Compound 9]	8.43	9.77e-08	~6.03e-06	> 3.02e-05	–
CN1CCCN(C)c2ccc(cn2)-c2ccnc(n2)Nc2cccc(c2)CN2CCCN(CC2)CC1=O [Compound 57]	–	2.95e-07	2.57e-06	> 3.02e-05	–
O=C1CN2CCN(Cc3cccc(c3)Nc3nccc(n3)-c3ccc(nc3)NCCCN1)C(CO)C2 (single isomer, unassigned) [Compound 48]	–	4.27e-08	5.5e-06	> 3.02e-05	3.34 % of cntrl
CC1CN2CCN1Cc1cccc(c1)Nc1nccc(n1)-c1ccc(nc1)NCCCNC(=O)C2 (single isomer, unassigned) [Compound 61]	–	4.47e-08	1.32e-06	> 3.02e-05	6.78 % of cntrl
CN1CCCN(C)c2ccc(cn2)-c2ccnc(n2)Nc2cccc(c2)CN2CCN(C)C(CC1=O)C2 (stereo not drawn) [Compound 129]	9.26	4.68e-07	9.55e-07	9.33e-06	–
CN1CCCN(C)c2ccc(cn2)-c2ccnc(n2)Nc2cccc(c2)CN2CCN(CC1=O)CC2COCCO (single isomer, unassigned) [Compound 104]	25.1	3.02e-07	1.78e-05	> 3.02e-05	–
CCCN1CCNC(=O)CN2CCN(CC2)Cc2cccc(c2)Nc2nccc(n2)-c2ccc(nc2)C1 [Compound 43]	4.32	1.07e-07	6.17e-09	1.91e-07	–
CN1CCN(C)c2ccc(cn2)-c2ccnc(n2)Nc2cccc(c2)CN2CCNC(CC1=O)C2 (stereo not drawn) [Compound 72]	11.5	3.02e-07	3.8e-06	> 3.02e-05	–
O=C1CN2CCN(CC2)Cc2cccc(c2)Nc2nccc(n2)-c2ccc(nc2)CNCCN1 [Compound 34]	–	8.32e-07	5.25e-07	~7.24e-06	–
O=C1CN2CCN(CC2)Cc2cccc(c2)Nc2nccc(n2)-c2ccc(nc2)NCC(O)CN1 (stereo not drawn) [Compound 23]	7.45	1.51e-07	5.01e-07	2.24e-05	–
CC1CN2CCN1Cc1cccc(c1)Nc1nccc(n1)-c1ccc(nc1)NCCCNC(=O)C2 (stereo not drawn) [Compound 60]	6.55	6.46e-08	1.78e-07	2.75e-06	–
CC1CN2CCN1CC(=O)NCCCNc1ccc(cn1)-c1ccnc(n1)Nc1cccc(c1)C2 (single isomer, unassigned) [Compound 137]	–	8.13e-08	1.95e-06	> 3.02e-05	8.17 % of cntrl
CC(C)CN1CCNC(=O)CN2CCN(CC2)Cc2cccc(c2)Nc2nccc(n2)-c2ccc(nc2)C1 [Compound 38]	–	7.76e-08	8.91e-09	1.86e-07	–
NC(=O)C1CN2CCN1Cc1cccc(c1)Nc1nccc(n1)-c1ccc(nc1)NCCCNC(=O)C2 (stereo not drawn) [Compound 59]	3.56	3.89e-08	5.75e-07	> 3.02e-05	–
NC(=O)C1CN2CCN1CC(=O)NCCCNc1ccc(cn1)-c1ccnc(n1)Nc1cccc(c1)C2 (stereo not drawn) [Compound 126]	4.95	7.59e-08	1.74e-07	> 3.02e-05	–
O=C1CN2CCN(CC2)Cc2cccc(c2)Nc2nccc(n2)-c2ccc(nc2)CN(CCOCC(F)(F)F)CCN1 [Compound 41]	30.8	–	~4.47e-07	1.78e-06	–
CC1CN2CCN1Cc1cccc(c1)Nc1nccc(n1)-c1ccc(nc1)N(C)CCCN(C)C(=O)C2 (stereo not drawn) [Compound 58]	15.9	4.27e-07	1.17e-07	2.09e-06	–
CN1CCCN(C)c2ccc(cn2)-c2ccnc(n2)Nc2cccc(c2)CN2CCN(CC1=O)C(=O)C2 [Compound 82]	10.8	4.07e-07	3.39e-07	> 3.02e-05	–
O=C1CNCCNc2ccc(cn2)-c2ccnc(n2)Nc2cccc(c2)CN2CCN1CC2 [Compound 113]	7.65	1.66e-07	2.82e-06	4.47e-06	–
O=C1CN2CCN(CC2)Cc2ccc(F)c(c2)Nc2nccc(n2)-c2ccc(nc2)NCCCN1 [Compound 3]	4.43	6.76e-08	1.66e-06	> 3.02e-05	–
O=C1CN2CCN(CC2)Cc2cccc(c2)Nc2nccc(n2)-c2ccc(nc2)NCC(O)CN1 (single isomer, unassigned) [Compound 24]	–	1.23e-07	~6.46e-07	1.1e-05	10.54 % of cntrl
O=C1CN2CCCN(CC2)Cc2cccc(c2)Nc2nccc(n2)-c2ccc(nc2)NCCCN1 [Compound 56]	3.19	1.26e-08	4.07e-06	4.47e-06	–
CN1CCCN(C)c2ccc(cn2)-c2ccnc(n2)Nc2cccc(c2)CN2CCNC(C2)C1=O (stereo not drawn) [Compound 74]	20.7	4.79e-07	2.04e-05	–	–
CN1CCN(C)c2ccc(cn2)-c2ccnc(n2)Nc2cccc(c2)CN2CCNC(C2)C1=O (stereo not drawn) [Compound 68]	28.4	7.76e-07	2e-05	–	–
CN1CCCN(C)c2ccc(cn2)-c2ccnc(n2)Nc2cccc(c2)CN2CCN(CC2)C1=O [Compound 76]	8.71	3.47e-07	2.34e-07	–	–
CN1CCN(C)c2ccc(cn2)-c2ccnc(n2)Nc2cccc(c2)CN2CCN(C)C(C2)C1=O (stereo not drawn) [Compound 69]	22.8	2.24e-06	> 3.02e-05	–	–
CC(C)N1CCN(C(C)C)c2ccc(cn2)-c2ccnc(n2)Nc2cccc(c2)CN2CCN(CC2)CC1=O [Compound 121]	34.1	–	1.78e-05	–	–
